SMILES strings stand for the structures. “And” between values parts separate entries of the source, which are not always exact repeats. Identical values can stand only once.

In the case of `CCC1(O)CCC2C3CCC4CC(OC(C)=O)CCC4(C)C3CCC21C` (stereo not given) [17-hydroxypregnan-3-yl acetate], the melting point was 165 °C.

Molecule `Oc1c(F)ccc(F)c1F` [2,3,6-trifluorophenol] came in with a melting point of 34 °C.

As to `CCCCCCCCCCCl` [1-chlorodecane], the melting point is -31 °C. Take `CN1C(CCl)Nc2cc(Cl)c(S(N)(=O)=O)cc2S1(=O)=O` (stereo not given) [methyclothiazide]: the melting point was found to be 225 °C.

`COc1cc(C(=O)NS(=O)(=O)c2ccccc2C)ccc1Cc1cn(C)c2ccc(NC(=O)OC3CCCC3)cc12` [Zafirlukast] showed a melting point of 139 °C.

As to `Cc1ccc(C)c(C(=O)O)c1`, the melting point is 134 °C. `C[C@]12CC[C@@H]3c4ccc(O)cc4CC[C@H]3[C@@H]1CC[C@@H]2O` [beta-estradiol]: the melting point was found to be 177 °C. `ClC/C=C/c1ccccc1` [cinnamyl chloride]: the melting point worked out at 7 °C. The molecule `Cc1ccccc1NC=O` [N-(2-Methylphenyl)formamide] displayed a melting point of 53 °C. As to `COc1ccc(C(=O)Cl)cc1` [4-Methoxybenzoyl chloride], the melting point stood at 22 °C. Under `CCOC(=O)c1cc(-c2ccccc2)n(-c2ccc(Cl)cc2Cl)n1` stands 124 °C; under `CSc1[nH]nc(N)c1C#N` [3-amino-5-methylthio-1h-pyrazole-4-carbonitrile], 149 °C; under `CC1(O)CCCCC1` [1-methylcyclohexanol], 26 °C.

With `O=[N+]([O-])c1cccc2ccccc12` [1-Nitronaphthalene], the melting point amounted to 61.5 °C. Under `O=C(O)CCC(=O)c1ccc(Br)cc1` [3-(4-bromobenzoyl)propionic acid] stands 147 °C. `Nc1ccc(O)c(C(=O)O)c1` [5-aminosalicylic acid] yielded a melting point of 280 °C. On to `CC(C)(F)C(Br)C(=O)O` (stereo not given) [2-bromo-3-fluoroisovaleric acid], for which the melting point turned out to be 54 °C. In turn, `CC(=O)Nc1ccc(C(=O)O)cc1` [4-acetamidobenzoic_acid] showed a melting point of 259 °C.

Molecule `CCCCCNCCCCC` [N-Pentylpentan-1-amine] came in with a melting point of -44 °C.

`Nc1ccccc1[N+](=O)[O-]` [2-nitroaniline]: the melting point was determined as 72 °C. Turning to `COC(=O)c1c(N)sc2c1CCCC2`, the melting point stood at 128 °C.

`CC(Oc1cccc(Cl)c1)C(=O)O` (stereo not given) [2-(3-chlorophenoxy)propionic acid]: the melting point turned out to be 115 °C. To `CC(=O)c1ccco1` [1-(2-Furyl)ethanone] belongs 29.5 °C. `Cc1cc(C)c(C)c(CCl)c1C` [3-(chloromethyl)-1,2,4,5-tetramethylbenzene] yielded a melting point of 70.5 °C. For `COC(=O)c1cc(OC)cc(OC)c1` [methyl_3,5-dimethoxybenzoate], the melting point was 43 °C. For `CCCC(C)O` (stereo not given) [Pentan-2-ol], the melting point was -50 °C.

`O=C2c1ccccc1S(=O)(=O)N(C)C/2=C(O)Nc3ccccn3` [Piroxicam] displayed a melting point of 199 °C.

The molecule `N#CC(=CN(O)c1ccccc1)c1ccccc1` [3-[hydroxy(phenyl)amino]-2-phenylprop-2-enenitrile] had a melting point of 155 °C. The molecule `C=CCCCC` [Hex-1-ene] gave a melting point of -140 °C. Turning to `CC(=O)O[C@@H]1CCC2(C)C(CCC3C2CCC2(C)C3CC[C@]2(O)/C=C/c2ccccc2)C1` (stereo not given in full), the melting point turned out to be 162 °C. To `O=C(N[C@@H](Cc1ccccc1)C(=O)O)OCc1ccccc1` [N-benzyloxycarbonyl-l-phenylalanine] belongs 86 °C. To `O=[N+]([O-])c1ccc(N2CCOCC2)cc1` [4-(4-nitrophenyl)morpholine] belongs 150 °C; to `Brc1cc(Br)cc(Br)c1` [1,3,5-tribromobenzene], 124 °C (2×) and 122 °C. `Cc1ccccc1CO` [2-methylbenzyl_alcohol] displayed a melting point of 39 °C.

Regarding `O=C(O)c1cc(-c2ccc(F)cc2F)ccc1O` [diflunisal], the melting point was 210 °C.

What is called melting point is the temperature of the solid-liquid transition.
